Measurements: patent publication US20020049151A1, “Therapeutic approaches to diseases by suppression of the NURR subfamily of nuclear transcription factors” (priority 2000, published 2002)

Assays:
[1] = tested on: CRH mRNA; assay: RT-PCR of CRH mRNA in primary human synoviocytes; format: cell-based; conditions: primary RA and PsA synoviocytes, 6 h; 10 ng/ml IL-1β, IL-6, TNF, 1 μM PGE2, MoCM; mean +/−SE
Description: To identify the origin of the cells that express CRH, the expression of CRH mRNA in isolated primary human synoviocyte cells was investigated. Synoviocytes are an important source and target cell for IL-1β, TNFα and PGE2 action within inflamed synovial tissue (Bucala et al., 1991). Moreover, these pro-inflammatory agents are important mediators in the pathogenesis of human synovial hyperplasia and cartilage destruction (MacNaul et aL., 1990). […] Representative examples of PCR products generated using synoviocytes maintained under normal conditions (Con), or exposed to 10 ng/ml IL-1β, IL-6, TNF, 1 μM PGE2, MoCM or 25 μM forskolin (FOR) for 6 h. Results were obtained from three separate experiments, using both RA and PsA cell lines. Values shown are the mean +/−SE. The symbol * indicates P<0.01 compared to control. PCR products generated were confirmed by Southern blot analysis using CDNA probes for human CRH and GAPDH.
The regulation of hypothalamic CRH gene expression by activation of adenylate cyclase/protein kinase A signaling pathway has previously been established (Guardiola-diaz et al., 1994). The ability of forskolin (FOR), an adenylate cyclase activating agent, was tested for stimulatory effects on CRH gene expression in primary synoviocytes. […] To determine regulatory signals of peripheral CRH expression the ability of pro-inflammatory agonists to regulate endogenous CRH MRNA was examined. […] Next, a comparison of the ability of individual pro-inflammatory mediators to induce CRH mRNA was performed. […] Levels of GAPDH mRNA remained relatively constant under all conditions tested (FIG. 1D).
Synovial tissue was treated for 4 h with 1 mg/ml collagenase (type I; Worthington Biochemical, Freehold, N.J.) in RPMI at 37° C. in 5% CO2. Dissociated cells were plated in RPMI supplemented with 10% fetal calf serum (GibcoBRL, Paisley, UK), penicillin (100 U/ml), streptomycin (100 U/ml) and fungizone (0.25 μg/ml). […] Twenty-four hours before transfection, 1×10^6 synoviocyte cells were plated in 25 cm^2 dishes and allowed to attach. […] Chloramphenicol acetyl transferase (CAT) levels were measured using a CAT ELISA (Boehringer Mannheim, Germany). Protein concentrations were determined by the Bradford assay (BioRad, Richmond, Calif.). […]

[2] = tested on: human CRH promoter; assay: hCRH-CAT reporter, transient transfection in primary human synoviocytes; format: cell-based; conditions: -666/+111 hCRH-CAT; RA and PsA synoviocytes; 10 ng/ml IL-1β, IL-6, TNFα, 1 μM PGE2, MoCM; 12 h
Protocol: To determine whether inflammatory mediators are capable of regulating the expression of the human CRH promoter a reporter construct was generated by cloning the proximal promoter region (−666/+111) (SEQ ID NO: 143) of the human CRH gene into the promoterless pBL3-chloramphenicol acetyl transferase (CAT) plasmid to create hCRH-CAT. Transcriptional regulation of the hCRH promoter was measured by transient transfection in primary human synoviocytes. […] Three individual RA and PsA synoviocyte cell lines were transiently transfected with 3 μg -666 /+111 hCRH-CAT reporter plasmid to monitor CRH promoter activity, maintained under normal conditions (Con), or exposed to 10 ng/ml IL-1β, IL-6, TNFα1 μM PGE2, MoCM or 25 μM FOR for 12 h. […] Representative CAT levels produced by transfected cells are illustrated in FIG. 2B.
Synovial tissue was treated for 4 h with 1 mg/ml collagenase (type I; Worthington Biochemical, Freehold, N.J.) in RPMI at 37° C. in 5% CO2. Dissociated cells were plated in RPMI supplemented with 10% fetal calf serum (GibcoBRL, Paisley, UK), penicillin (100 U/ml), streptomycin (100 U/ml) and fungizone (0.25 μg/ml). […] Twenty-four hours before transfection, 1×10^6 synoviocyte cells were plated in 25 cm^2 dishes and allowed to attach. Endotoxin free-DNA ([…] CMV-β-galactosidase or 3 μg -666/+111 hCRH CAT (Murphy and Conneely, 1997) was added to 35 μl lipotaxi reagent (Stratagene, Cambridge, UK) in a volume of 900 μl RPMI (serum free) and incubated at room temperature for 30 min. RPMI (1.5 ml) was added to the transfection mixture, transferred onto the cells and incubated for 6 h at 37° C. in 5% CO2. An equal volume of media was added, and the cells were incubated overnight at 37° C. in 5% CO2. The DNA-lipotaxi containing media was replaced, and the cells were left untreated or treated with 10 ng/ml IL-1β, IL-6, TNFα, 1 μM PGE2 or MoCM and incubated for a further 24 h. Chloramphenicol acetyl transferase (CAT) levels were measured using a CAT ELISA (Boehringer Mannheim, Germany). Protein concentrations were determined by the Bradford assay (BioRad, Richmond, Calif.). For β-galactosidase assays cells were washed with cold phosphate buffered saline (PBS), fixed with cold 0.5% glutaraldehyde and washed twice with PBS before incubation with staining solution (1M MgCl2, 5M NaCL, 0.5M HEPES pH7.3, 30 mM potassium ferricyanide, 30 mM potassium ferrocyanide and 2% 5-bromo-4-chloro-3-indoyl-β-galactopyranoside) for 12 h at 37° C.

Compound | CRH mRNA expression, fold stimulation [1] | transcriptional activity of the hCRH promoter (CAT), fold [2]
CCCCC[C@H](O)/C=C/[C@H]1[C@H](O)CC(=O)[C@@H]1C/C=C\CCCC(=O)O [PGE2, reference compound] | 3.85+/−1.5 fold | 28.8+/−1.7 fold
IL-1β: pro-inflammatory cytokine | 2.3+/−1.0 fold | 17.1+/−3.1 fold
IL-6: pro-inflammatory cytokine | 1.5+/−1.2 fold | 3.2+/−1.9 fold
TNFα | 3.6+/−2.0 fold | 15.6+/−1.9 fold
